Source: patent US10556888B2, “Pyrazole compounds or salts thereof, preparation methods therefor, herbicidal compositions and use thereof” (QINGDAO KINGAGROOT CHEMICAL COMPOUNDS CO., LTD, priority 2015, dated 2020)

Experiments:
Format in all cases: in vivo
Corn = assay: Control experiment, test in post-emergence stage, crop safety; design: key: Level 10: completely dead; Level 9: above 90% growth inhibition rate; Level 8: above 80% growth inhibition rate; Level 7: above 70% growth inhibition rate; Level 6: above 60% growth inhibition rate; Level 5: above 50% growth inhibition rate; Level 4: above 30% growth inhibition rate; Level 3: above 20% growth inhibition rate; Level 2: above 10% growth inhibition rate; Level 1: above 1-10% growth inhibition rate; Level 0: no effect; conditions: 5-6 leaf stage, 15 g/ha, observe time 25 day
Description: (§1) Test in post-emergence stage: seeds of monocotyledonous weeds and corn were put into a plastic pot loaded with soil, covered with 0.5-2 cm soil, and allowed to grow in good greenhouse environment. The test plants were treated at 5-6 leaf stage 4 weeks after sowing. The test compounds of the present invention were dissolved with acetone respectively, then added with tween 80, diluted by a certain amount of water to reach a certain concentration. The solution was sprayed to the plants by a spray tower. The test application rate was 15 g/ha and the observe time was 25 day.

Echinochloa crus-galli = assay: Control experiment, test in post-emergence stage; design: key: Level 10: completely dead; Level 9: above 90% growth inhibition rate; Level 8: above 80% growth inhibition rate; Level 7: above 70% growth inhibition rate; Level 6: above 60% growth inhibition rate; Level 5: above 50% growth inhibition rate; Level 4: above 30% growth inhibition rate; Level 3: above 20% growth inhibition rate; Level 2: above 10% growth inhibition rate; Level 1: above 1-10% growth inhibition rate; Level 0: no effect; conditions: 5-6 leaf stage, 15 g/ha, observe time 25 day
Description: as §1

Digitaria sanguinalis = assay: Control experiment, test in post-emergence stage; design: key: Level 10: completely dead; Level 9: above 90% growth inhibition rate; Level 8: above 80% growth inhibition rate; Level 7: above 70% growth inhibition rate; Level 6: above 60% growth inhibition rate; Level 5: above 50% growth inhibition rate; Level 4: above 30% growth inhibition rate; Level 3: above 20% growth inhibition rate; Level 2: above 10% growth inhibition rate; Level 1: above 1-10% growth inhibition rate; Level 0: no effect; conditions: 5-6 leaf stage, 15 g/ha, observe time 25 day
Description: as §1

Setaria viridis = assay: Control experiment, test in post-emergence stage; design: key: Level 10: completely dead; Level 9: above 90% growth inhibition rate; Level 8: above 80% growth inhibition rate; Level 7: above 70% growth inhibition rate; Level 6: above 60% growth inhibition rate; Level 5: above 50% growth inhibition rate; Level 4: above 30% growth inhibition rate; Level 3: above 20% growth inhibition rate; Level 2: above 10% growth inhibition rate; Level 1: above 1-10% growth inhibition rate; Level 0: no effect; conditions: 5-6 leaf stage, 15 g/ha, observe time 25 day
Description: as §1

[1] = system: Monocotyledonous and dicotyledonous weed; assay: Post-emergence test experiment, weed control effect (Table 2); design: key to weed control effect, Setaria viridis (level) / weed control effect, Rorippa indica (level) / weed control effect, Abutilon theophrasti (level) / weed control effect, Echinochloa crus-galli (level) / weed control effect, Digitaria sanguinalis (level): Level 10: completely dead; Level 9: above 90% growth inhibition rate; Level 8: above 80% growth inhibition rate; Level 7: above 70% growth inhibition rate; Level 6: above 60% growth inhibition rate; Level 5: above 50% growth inhibition rate; Level 4: above 30% growth inhibition rate; Level 3: above 20% growth inhibition rate; Level 2: above 10% growth inhibition rate; Level 1: above 1-10% growth inhibition rate; Level 0: no effect; conditions: 3 weeks after spraying, greenhouse
How it was run: (§2)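 Weed and crop seeds (wheat, corn, rice, soybean, cotton, oilseed, millet, sorghum) grown in soil in greenhouse; sprayed at 2-3 leaf stage, 2-3 weeks after sowing, with compound in acetone/Tween 80/water. Effects assessed after 3 weeks further greenhouse culture.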

[2] = system: main crop (wheat, corn, rice, soybean, cotton, oilseed, millet and sorghum); assay: Post-emergence test experiment, main crops (Table 2); design: key: Level 10: completely dead; Level 9: above 90% growth inhibition rate; Level 8: above 80% growth inhibition rate; Level 7: above 70% growth inhibition rate; Level 6: above 60% growth inhibition rate; Level 5: above 50% growth inhibition rate; Level 4: above 30% growth inhibition rate; Level 3: above 20% growth inhibition rate; Level 2: above 10% growth inhibition rate; Level 1: above 1-10% growth inhibition rate; Level 0: no effect; conditions: 3 weeks after spraying, greenhouse
How it was run: as §2

[3] = system: Echinochloa crus-galli, Scirpus juncoides and Monochoria vaginalis; assay: Resistance tests on the collected weed seeds; conditions: common rate; seeds collected from Heilongjing and Jiangsu Province of China
Text: The seeds of Echinochloa crus-galli, Scirpus juncoides and Monochoria vaginalis were collected from Heilongjing and Jiangsu Province of China.

COCc1c(S(C)(=O)=O)ccc(C(=O)c2c(C)nn(C)c2O)c1Cl [A, reference compound]
Corn (safety, activity level) (Corn): 1 (Level 1: above 1-10% growth inhibition rate) | Echinochloa crus-galli (activity level) (Echinochloa crus-galli): 7 (Level 7: above 70% growth inhibition rate) | Digitaria sanguinalis (activity level) (Digitaria sanguinalis): 6 (Level 6: above 60% growth inhibition rate) | Setaria viridis (activity level) (Setaria viridis): 7 (Level 7: above 70% growth inhibition rate)

Cc1nn(C)c(O)c1C(=O)c1ccc(S(C)(=O)=O)c(COCC(F)(F)F)c1Cl [B, reference compound]
Corn (safety, activity level) (Corn): 0 | Echinochloa crus-galli (activity level) (Echinochloa crus-galli): 6 (Level 6: above 60% growth inhibition rate) | Digitaria sanguinalis (activity level) (Digitaria sanguinalis): 5 (Level 5: above 50% growth inhibition rate) | Setaria viridis (activity level) (Setaria viridis): 7 (Level 7: above 70% growth inhibition rate)

COCc1c(S(C)(=O)=O)ccc(C(=O)c2c(C)nn(C)c2OC(=O)c2cn(C)nc2C)c1Cl [Compound 26]
Corn (safety, activity level) (Corn): 0 | weed control effect, Abutilon theophrasti (level) ([1]; 30 g/ha): 7 (Level 7: above 70% growth inhibition rate) | weed control effect, Bidens pilosa (level) ([1]; 30 g/ha): 8 (Level 8: above 80% growth inhibition rate) | weed control effect, Digitaria sanguinalis (level) ([1]; 30 g/ha): 10 | weed control effect, Echinochloa crus-galli (level) ([1]; 30 g/ha): 10 | weed control effect, Rorippa indica (level) ([1]; 30 g/ha): 8 (Level 8: above 80% growth inhibition rate) | weed control effect, Setaria viridis (level) ([1]; 30 g/ha): 10 | Echinochloa crus-galli (activity level) (Echinochloa crus-galli): 10 | Digitaria sanguinalis (activity level) (Digitaria sanguinalis): 10 | Setaria viridis (activity level) (Setaria viridis): 10 | effect on crop, corn (level) ([2]; 30 g/ha): 1 (Level 1: above 1-10% growth inhibition rate) | effect on crop, rice (level) ([2]; 30 g/ha): 5 (Level 5: above 50% growth inhibition rate) | effect on crop, wheat (level) ([2]; 30 g/ha): 0

Cc1nn(C)cc1C(=O)Oc1c(C(=O)c2ccc(S(C)(=O)=O)c(COCC(F)(F)F)c2Cl)c(C)nn1C [Compound 29]
Corn (safety, activity level) (Corn): 0 | weed control effect, Abutilon theophrasti (level) ([1]; 15 g/ha): 8 (Level 8: above 80% growth inhibition rate) | weed control effect, Bidens pilosa (level) ([1]; 15 g/ha): 5 (Level 5: above 50% growth inhibition rate) | weed control effect, Digitaria sanguinalis (level) ([1]; 15 g/ha): 9 (Level 9: above 90% growth inhibition rate) | weed control effect, Echinochloa crus-galli (level) ([1]; 15 g/ha): 8 (Level 8: above 80% growth inhibition rate) | weed control effect, Rorippa indica (level) ([1]; 15 g/ha): 4 (Level 4: above 30% growth inhibition rate) | weed control effect, Setaria viridis (level) ([1]; 15 g/ha): 10 | Echinochloa crus-galli (activity level) (Echinochloa crus-galli): 8 (Level 8: above 80% growth inhibition rate) | Digitaria sanguinalis (activity level) (Digitaria sanguinalis): 10 | Setaria viridis (activity level) (Setaria viridis): 9 (Level 9: above 90% growth inhibition rate) | effect on crop, corn (level) ([2]; 15 g/ha): 0 | effect on crop, rice (level) ([2]; 15 g/ha): 3 (Level 3: above 20% growth inhibition rate) | effect on crop, wheat (level) ([2]; 15 g/ha): 0

CCOC(=O)c1cnn(C)c1S(=O)(=O)NC(=O)Nc1nc(OC)cc(OC)n1 [pyrazosulfuron-ethyl]
Resistance of the weeds to the herbicide [3]: resistant
